Test results from patent publication US20250353891A1 (MEDIMMUNE LIMITED, priority 2022, published 2025).
Like-named read-outs stand apart in the source and are kept apart here. Starred links: 1 amine or outer side, 2 acyl side, 3 side chain; linkers in the order of their positions; H or OH if unused. Non-standard residues stand in square brackets, D forms with d. Residues, ends and D or L forms follow the SMILES beside them. Groups on a side chain read outwards from the residue. *: point of attachment. C18 diacid = O=C(O)CCCCCCCCCCCCCCCCC(=O)*; Dip = N[C@H](C(=O)O)C(c1ccccc1)c1ccccc1; γGlu = O=C(O)[C@H](CCC(=O)[*:2])N[*:1]; Stearoyl = CCCCCCCCCCCCCCCCCC(=O)*; Palmitoyl = CCCCCCCCCCCCCCCC(=O)*; αMeF = C[C@](N)(Cc1ccccc1)C(=O)O; PEG4 = NCCOCCOCCOCCOCCC(=O)O; PEG2 = NCCOCCOCCC(=O)O; AEEA = NCCOCCOCC(=O)O; Aib = CC(C)(N)C(=O)O

How the values were obtained:
[1] = Mouse acute food intake study; type: in vivo; settings: male C57Bl/6 mice, s.c., dose 10 nmol/kg, cumulative food intake at 24 hr vs vehicle
In short: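 Peptide or vehicle went subcutaneously (5 mL/kg) to 6-8 h-fasted male C57Bl/6 mice shortly before the dark phase, with groups balanced on body weight and 24-hour intake. Cumulative food consumption was derived from 48 h of automated BioDaq monitoring with free food and water access.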

[2] = Proteolytic resistance to FasSSIF/Pancreatin; type: in vitro ADME; settings: simulated intestinal fluid
Experimental: A fresh suspension of FasSSIF/P (Fasted-State Simulated Intestinal Fluid+USP Pancreatin®) was prepared according to that described by Galia, Nicolaides, Hörter, Löbenberg, Reppas and Dressman: Pharm. Res. 15 (1998) 698-705, and USP XL requirements. The resulting preparation was used immediately without storage.
Peptide for evaluation (1.0 mg) was dissolved in pre-warmed FasSSIF without Pancreatin® (200 μL). To this fresh FasSSIF/Pancreatin® (100 μL) was added to initiate potential proteolysis. Following momentary vortexing of the reaction tube the mixture was incubated at 37° C. in a thermostatic water bath for the duration of the experiment. 25 μL aliquot of the co-incubated peptide-enzyme mixture was periodically withdrawn (t=0, 5, 10 15 and 30 min) and quenched immediately by addition to a solution of 10% TFA in 1:1 water/acetonitrile (75 μL) to arrest proteolytic activity. Quenched samples were centrifuged (7800 RPM, 3 mins) to pellet solids and 10 μL aliquots of the supernatant solution were analyzed using analytical RP-HPLC as follows: Analytical RP-HPLC method: Agilent Polaris C8-A column (4.6×100 mm, 3 micron) eluted with a linear binary gradient of 10-90% MeCN (0.1% TFA v/v) in water (0.1% TFA v/v) over either 10 or 15 mins at 1.5 mL min^−1 at 40° C. with detection by UV absorption at 210 nm. Manual integration (AUC) allowed estimation of remaining intact peptide over the time course of the experiment.

[3] = system: GLP-1R knockout (KO) mice; assay: Glucose change in GLP-1R knockout mice; type: in vivo, mouse; settings: GLP-1R KO mice, s.c., 120 min vs 0 min
Experimental: (§1) They acclimated for a minimum of ˜1-2 weeks, and mice were sorted into groups (n=4-8/group) based on body weight. On day of study, mice were fasted briefly for 2 hrs prior to study start. In some studies, mice were pre-treated with octreotide (BaChem, 10 mg/kg) at 30 minutes prior to peptide injection. Glucose was measured via glucometer at various timepoints including-30 min (prior to octreotide when used in studies), 0 min (before peptide dose), 30, 60, 120, 180, 240, and 360 minutes. Since these studies are acute in nature, mice were re-used for multiple studies (no more than 3) and always allowed at least a minimum wash-out period of 1 week.

wildtype (WT) mice = assay: Glucose change in wildtype mice; type: in vivo, mouse; settings: s.c., 120 min vs 0 min
Experimental: as §1, with “GLP-1R knockout (KO) and wildtype (WT) mice at 8-14 weeks of age were singly housed on standard chow diet (Envigo, 2918) and automatic water. They” for “They”

[4] = target: human GLP-1 receptor (hGLP-1R) (Homo sapiens, UniProt P43220); assay: cAMP production (HTRF) in CHO cells expressing hGLP-1R; type: cell-based; parameters: expressed in transfected cells; settings: for EC50: geometric mean, read-out: hGLP-1R EC50; for % Relative Potency Ratio: % GLP-1R activity relative to GLP-1 / % GlucR activity relative to glucagon
In short: (§2)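 Potency values represent EC50 from 4-parameter logistic curves of HTRF % Delta F signal. Receptor-expressing CHO cells (hGCGR 2×10^5 cells/mL, hGLP-1R 1×10^5 cells/mL) were exposed for 30 min at room temperature before two-step cAMP detection.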

[5] = target: human glucagon receptor (hGCGR) (Homo sapiens, UniProt P47871); assay: cAMP production (HTRF) in CHO cells expressing hGCGR; type: cell-based; parameters: expressed in transfected cells; settings: geometric mean, read-out: hGluc-R EC50
In short: as §2

[6] = 3 nmol/kg, no somatostatin pretreatment
[7] = Table 6, peptides modified at position 17, cAMP in CHO hGLP-1R cells
[8] = Table 6, peptides modified at position 17, cAMP in CHO hGCGR cells
[9] = 10 nmol/kg, somatostatin pretreatment (octreotide) 30 min prior to cpd
[10] = 30 nmol/kg, somatostatin pretreatment (octreotide) 30 min prior to cpd

Chain of human GLP-1 receptor (hGLP-1R) (P43220 24-463): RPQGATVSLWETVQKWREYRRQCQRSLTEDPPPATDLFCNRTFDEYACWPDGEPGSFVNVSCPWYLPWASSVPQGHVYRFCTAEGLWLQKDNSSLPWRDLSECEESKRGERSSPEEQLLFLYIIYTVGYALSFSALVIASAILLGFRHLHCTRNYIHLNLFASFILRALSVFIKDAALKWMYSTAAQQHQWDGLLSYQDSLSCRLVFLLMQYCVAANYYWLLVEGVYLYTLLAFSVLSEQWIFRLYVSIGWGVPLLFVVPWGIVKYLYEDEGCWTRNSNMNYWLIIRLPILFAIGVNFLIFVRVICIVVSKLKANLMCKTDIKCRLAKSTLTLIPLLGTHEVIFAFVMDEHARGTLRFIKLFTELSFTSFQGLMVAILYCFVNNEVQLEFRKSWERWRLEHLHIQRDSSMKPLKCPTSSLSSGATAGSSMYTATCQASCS
Chain of human glucagon receptor (hGCGR) (P47871 26-477): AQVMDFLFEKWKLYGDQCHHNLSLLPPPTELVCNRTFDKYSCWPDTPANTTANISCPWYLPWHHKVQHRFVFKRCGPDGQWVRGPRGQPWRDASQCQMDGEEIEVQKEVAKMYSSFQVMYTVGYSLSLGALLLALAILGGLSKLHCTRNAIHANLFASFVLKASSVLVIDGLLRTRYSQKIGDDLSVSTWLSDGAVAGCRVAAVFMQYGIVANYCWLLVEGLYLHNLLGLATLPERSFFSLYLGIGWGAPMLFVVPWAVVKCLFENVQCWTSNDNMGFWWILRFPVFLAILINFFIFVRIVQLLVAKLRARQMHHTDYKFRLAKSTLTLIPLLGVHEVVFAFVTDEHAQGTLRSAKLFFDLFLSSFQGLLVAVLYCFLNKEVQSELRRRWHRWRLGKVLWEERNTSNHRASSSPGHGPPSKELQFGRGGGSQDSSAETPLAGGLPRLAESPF

Row | SMILES | 24 hr % Vehicle Food Intake [1] | remaining at 5 min, 3.3 mg/mL [2] | remaining at 10 min, 3.3 mg/mL [2] | remaining at 0.25 h, 3.3 mg/mL [2] | remaining at 0.5 h, 3.3 mg/mL [2] | GLP-1R KO % glucose change 120 min [3, 6] | WT % glucose change 120 min (wildtype (WT) mice; [6]) | EC50 [4, 7] | % Relative Potency Ratio ([4]; Table 6) | EC50 [5, 8] | GLP-1R KO % glucose change 120 min [3, 9] | GLP-1R KO % glucose change 120 min [3, 10] | WT % glucose change 120 min (wildtype (WT) mice; [9]) | WT % glucose change 120 min (wildtype (WT) mice; [10]) | % Relative Potency Ratio [4] | EC50 ([4]; cAMP, CHO cells, 0.1% BSA) | EC50 ([5]; cAMP, CHO cells, 0.1% BSA)
1 | CCCCCCCCCCCCCCCC(=O)N[C@@H](CCC(=O)N[C@@H](CCC(=O)NCCOCCOCCOCCOCCC(=O)NCCCC[C@H](NC(=O)[C@H](CO)NC(=O)[C@H](CC(=O)O)NC(=O)[C@H](CC(C)C)NC(=O)[C@@H](NC(=O)[C@H](CCCCN)NC(=O)[C@H](CO)NC(=O)[C@@H](NC(=O)[C@H](CC(=O)O)NC(=O)[C@H](CO)NC(=O)[C@@H](NC(=O)[C@](C)(Cc1ccccc1)NC(=O)[C@H](CO)NC(=O)CNC(=O)[C@H](CCC(N)=O)NC(=O)C(C)(C)NC(=O)[C@@H](N)Cc1c[nH]cn1)[C@@H](C)O)C(C)C)C(c1ccccc1)c1ccccc1)C(=O)N[C@@H](CCCNC(=N)N)C(=O)N[C@@H](C)C(=O)N[C@@H](CCC(N)=O)C(=O)N[C@@H](CC(=O)O)C(=O)N[C@@](C)(Cc1ccccc1)C(=O)N[C@H](C(=O)N[C@@H](CCC(=O)O)C(=O)NC(C)(C)C(=O)N[C@@H](CC(C)C)C(=O)N[C@@H](CCC(=O)O)C(=O)N[C@@H](C)C(=O)NCC(=O)NCC(N)=O)C(C)C)C(=O)O)C(=O)O [Peptide 43] (H-H[Aib]QGS[αMeF]TSDVSK[Dip]LDSK([PEG4-γGlu-γGlu-Palmitoyl])RAQD[αMeF]VE[Aib]LEAGG-NH2; N-terminus assumed) | 53.2% | 83% | 33% | 29% | 19% | 63.9% | −56.0% | 1.89 pM | 5.8 | 5.52 pM | – | – | – | – | – | – | –
2 | CCCCCCCCCCCCCCCCCC(=O)N[C@@H](CCC(=O)N[C@@H](CCC(=O)NCCOCCOCCC(=O)NCCOCCOCCC(=O)NCCCC[C@H](NC(=O)[C@H](CO)NC(=O)[C@H](CC(=O)O)NC(=O)[C@H](CC(C)C)NC(=O)[C@@H](NC(=O)[C@H](CCCCN)NC(=O)[C@H](CO)NC(=O)[C@@H](NC(=O)[C@H](CC(=O)O)NC(=O)[C@H](CO)NC(=O)[C@@H](NC(=O)[C@](C)(Cc1ccccc1)NC(=O)[C@H](CO)NC(=O)CNC(=O)[C@H](CCC(N)=O)NC(=O)[C@H](CO)NC(=O)[C@@H](N)Cc1c[nH]cn1)[C@@H](C)O)C(C)C)C(c1ccccc1)c1ccccc1)C(=O)N[C@@H](C)C(=O)N[C@@H](C)C(=O)N[C@@H](CCC(N)=O)C(=O)N[C@@H](CC(=O)O)C(=O)N[C@@](C)(Cc1ccccc1)C(=O)N[C@H](C(=O)N[C@@H](CCC(=O)O)C(=O)NC(C)(C)C(=O)N[C@H](C(=O)N[C@@H](C)C(=O)N[C@@H](CC(N)=O)C(=O)N[C@H](C(N)=O)[C@@H](C)O)[C@@H](C)CC)C(C)C)C(=O)O)C(=O)O [Peptide 49] (H-HSQGS[αMeF]TSDVSK[Dip]LDSK([PEG2-PEG2-γGlu-γGlu-Stearoyl])AAQD[αMeF]VE[Aib]IANT-NH2; N-terminus assumed) | 69.2% | 97% | 96% | 95% | 90% | – | – | 1.74 pM | 2.0 | 1.73 pM | 193.3% | 154.3% | −1.2% | 16.8% | – | – | –
3 | CC[C@H](C)[C@H](NC(=O)[C@H](Cc1c[nH]c2ccccc12)NC(=O)[C@H](CCCCNC(=O)COCCOCCNC(=O)COCCOCCNC(=O)CC[C@H](NC(=O)CCCCCCCCCCCCCCCCC(=O)O)C(=O)O)NC(=O)[C@@H](NC(=O)[C@H](Cc1ccccc1)NC(=O)[C@H](CC(=O)O)NC(=O)[C@H](CCC(N)=O)NC(=O)[C@H](C)NC(=O)[C@H](C)NC(=O)[C@H](CCCNC(=N)N)NC(=O)[C@H](CO)NC(=O)[C@H](CC(=O)O)NC(=O)[C@H](CC(C)C)NC(=O)[C@](C)(Cc1ccccc1)NC(=O)[C@H](CCCCN)NC(=O)[C@H](CO)NC(=O)[C@@H](NC(=O)[C@H](CC(=O)O)NC(=O)[C@H](CO)NC(=O)[C@@H](NC(=O)[C@](C)(Cc1ccccc1)NC(=O)[C@H](CO)NC(=O)CNC(=O)[C@H](Cc1c[nH]cn1)NC(=O)C(C)(C)NC(=O)[C@@H](N)Cc1c[nH]cn1)[C@@H](C)O)C(C)C)C(C)C)C(=O)N[C@@H](C)C(=O)N[C@@H](CC(N)=O)C(=O)N[C@H](C(N)=O)[C@@H](C)O [Peptide 361] (H-H[Aib]HGS[αMeF]TSDVSK[αMeF]LDSRAAQDFVK([AEEA-AEEA-γGlu-C18 diacid])WIANT-NH2; N-terminus assumed) | 78.8% | – | – | – | – | – | – | – | – | – | 91.5% | 93.8% | −23.0% | −38.1% | 1.3 | 35.7 pM | 23.6 pM
